Data published in patent US20260176232A1, “PROBENECID COMPOUNDS FOR THE TREATMENT OF INFLAMMASOME-MEDIATED DERMATOLOGICAL CONDITIONS” (Bacainn Biotherapeutics, Ltd., priority 2022, published 2026).

Tests used:
NLRP1 inflammasome = assay: IL-1β secretion in macrophages challenged with L18-MDP (FIG. 7); format: cell-based, human; details: 20, 100, 350 μM, L18-MDP 100 μg/mL 16 hours, secreted IL-1β
Excerpt: In vitro stimulation of human macrophages.

[1] = biological target: T1, recombinant full length NLRP1 (Homo sapiens, UniProt Q9C000); assay: Photo-affinity labelling of recombinant full length NLRP1, anti-PEG immunoblot (FIG. 9E); format: binding; details: inferred from photo-affinity probes ADS165, ADS167
T1 sequence (Q9C000 1-1473): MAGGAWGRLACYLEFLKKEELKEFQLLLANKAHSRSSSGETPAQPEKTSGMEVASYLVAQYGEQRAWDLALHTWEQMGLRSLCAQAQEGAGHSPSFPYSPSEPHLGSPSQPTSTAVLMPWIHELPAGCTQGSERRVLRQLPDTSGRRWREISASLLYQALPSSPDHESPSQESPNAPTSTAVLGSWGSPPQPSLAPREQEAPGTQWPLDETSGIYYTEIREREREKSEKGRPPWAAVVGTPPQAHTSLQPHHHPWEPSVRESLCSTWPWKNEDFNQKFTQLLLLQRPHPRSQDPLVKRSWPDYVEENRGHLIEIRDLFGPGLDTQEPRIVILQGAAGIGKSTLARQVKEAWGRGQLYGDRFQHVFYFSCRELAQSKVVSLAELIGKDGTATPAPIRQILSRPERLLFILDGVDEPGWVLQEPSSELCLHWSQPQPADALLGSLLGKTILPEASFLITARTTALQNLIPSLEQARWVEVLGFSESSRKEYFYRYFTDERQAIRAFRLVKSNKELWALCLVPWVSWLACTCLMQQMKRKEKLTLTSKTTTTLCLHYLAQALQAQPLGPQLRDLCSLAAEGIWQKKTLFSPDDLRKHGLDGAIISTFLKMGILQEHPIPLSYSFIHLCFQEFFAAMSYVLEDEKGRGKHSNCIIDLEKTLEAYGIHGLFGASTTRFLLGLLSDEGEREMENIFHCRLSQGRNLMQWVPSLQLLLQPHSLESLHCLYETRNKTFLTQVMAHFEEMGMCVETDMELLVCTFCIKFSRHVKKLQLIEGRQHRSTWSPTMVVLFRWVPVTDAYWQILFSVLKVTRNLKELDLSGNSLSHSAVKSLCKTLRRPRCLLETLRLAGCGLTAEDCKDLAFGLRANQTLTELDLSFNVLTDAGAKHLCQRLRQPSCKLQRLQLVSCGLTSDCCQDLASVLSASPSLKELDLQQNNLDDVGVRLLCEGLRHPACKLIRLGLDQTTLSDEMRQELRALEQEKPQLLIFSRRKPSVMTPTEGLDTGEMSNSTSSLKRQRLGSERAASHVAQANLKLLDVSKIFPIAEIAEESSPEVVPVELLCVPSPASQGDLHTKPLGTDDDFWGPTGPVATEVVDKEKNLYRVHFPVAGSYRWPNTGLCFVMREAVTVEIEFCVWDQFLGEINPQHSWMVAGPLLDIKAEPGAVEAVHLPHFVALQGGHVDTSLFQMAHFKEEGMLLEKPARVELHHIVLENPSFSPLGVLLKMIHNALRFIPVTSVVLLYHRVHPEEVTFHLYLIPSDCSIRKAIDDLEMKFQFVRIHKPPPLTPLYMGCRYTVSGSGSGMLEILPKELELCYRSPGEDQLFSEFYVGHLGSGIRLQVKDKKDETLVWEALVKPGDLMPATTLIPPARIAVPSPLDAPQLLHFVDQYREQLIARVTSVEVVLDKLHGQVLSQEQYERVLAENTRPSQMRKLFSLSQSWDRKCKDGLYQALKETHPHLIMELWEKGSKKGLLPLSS
Method: FIGS. 9A-9F are a series of panels showing ADS032 (also referred to herein as “BT032”) directly binds to NLRP1 and NLRP3. FIGS. 9A and 9B are chemical structures of ADS165 and ADS167. […] ADS165 was then co-incubated for 20 mins and UV treated for 20 mins to cross-link associated compound and protein. Protein was separated by SDS-PAGE and immunoblotted (IB) with anti-PEG to visualize ADS165-linked protein. FIG. 9D: iBMDM cells stably expressing NLRP3-Flag were treated for 30 mins with ADS165, ADS167 (1 mM) or MCC955 (50 μM) for 30 mins, and irradiated with UV 365 nm for 30 mins. Cells were lysed with buffer and immunoprecipitation (IP) of NLRP3 performed with α-NLRP3 (D4D8T) antibody. Levels of precipitated (IP) and total cellular lysate (Input) NLRP3 were determined by immunoblotting with α-NLRP3 (Cryo-2) antibody. FIG. 9F: NLRP1-Flag was expressed in HEK293T cells (1×10^6) for 20 h and treated with ADS165 (1 mM) for 30 mins where indicated, followed by UV 365 nm for a further 30 mins. Cells were lysed with lysis buffer and […] immunoprecipitated with α-Flag (M2) antibody. Proteins were separated by SDS-PAGE and ADS165-linked NLRP1 identified by immunoblot with a-PEG, while total precipitated NLRP1 visualized by immunoblot with α-NLRP1 and total cell lysate by α-Flag. Data shown is representative of three independent experiments.
Next, it was determined whether ADSO32 could interact with NLRP1. […] To further investigate this interaction, ectopically expressed Flag-tagged NLRP1 was immunoprecipitated from cell lysates pretreated or not with ADS165 and exposed to UV light.

With `CCCN(CCC)S(=O)(=O)c1ccc(-c2ccc(CCCC(=O)O)cc2)cc1` [BT032, 4-(4′-(N,N-dipropylsulfamoyl)-[1,1′-biphenyl]-4-yl)butanoic acid] the “NLRP1 (L18-MDP)-induced inflammasome activation” value (NLRP1 inflammasome) was “dose-dependently inhibited” and the “direct interaction with NLRP1” value [1] was “directly interacts proximal to the Walker B motif within the NACHT domain”.
